Measured values: the supplement of paper PMC5908809

How the values were obtained:
Assay in all cases: relative IC50 (inflection point of fitted viability curve, relative to fitted max inhibition); higher = less sensitive
Conditions in all cases: 72 h
YT (IL-2 2.5 ng/mL) = tested on: YT (IL-2 2.5 ng/mL)
Protocol: (§1)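 Drug sensitivity and resistance testing: 5 concentrations over a 10,000-fold range, 72 h at 37 °C, viability by CellTiter-Glo normalised to DMSO and benzethonium chloride controls. IC50 is the inflection point of a logistic fit (min fixed at 0, max fitted), so it is relative to the fitted maximal inhibition. Kept only where fitted max inhibition is at least 50%.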

NK-YS (IL-2 2.5 ng/mL) = tested on: NK-YS (IL-2 2.5 ng/mL)
Protocol: as §1

[1] = tested on: normal primary NK cells, pool 1 (3 donors) (IL-2 2.5 ng/mL)
Protocol: as §1

DERL-7 (IL-2 2.5 ng/mL) = tested on: DERL-7 (IL-2 2.5 ng/mL)
Protocol: as §1

KHYG-1 (IL-2 2.5 ng/mL) = tested on: KHYG-1 (IL-2 2.5 ng/mL)
Protocol: as §1

[2] = tested on: normal primary NK cells, pool 1 (3 donors), resting (IL-2 0 ng/mL)
Protocol: as §1

IMC-1 (IL-2 20 ng/mL) = tested on: IMC-1 (IL-2 20 ng/mL)
Protocol: as §1

KAI3 (IL-2 2.5 ng/mL) = tested on: KAI3 (IL-2 2.5 ng/mL)
Protocol: as §1

NKL (IL-2 2.5 ng/mL) = tested on: NKL (IL-2 2.5 ng/mL)
Protocol: as §1

SNK-6 (IL-2 2.5 ng/mL) = tested on: SNK-6 (IL-2 2.5 ng/mL)
Protocol: as §1

[3] = tested on: normal primary NK cells, pool 2 (3 donors) (IL-2 2.5 ng/mL)
Protocol: as §1

NK-92 (IL-2 2.5 ng/mL) = tested on: NK-92 (IL-2 2.5 ng/mL)
Protocol: as §1

[4] = tested on: normal primary NK cells, pool 3 (3 donors) (IL-2 2.5 ng/mL)
Protocol: as §1

| Compound | relative IC50 (YT (IL-2 2.5 ng/mL)) [nM] | relative IC50 (NK-YS (IL-2 2.5 ng/mL)) [nM] | relative IC50 [1] [nM] | relative IC50 (DERL-7 (IL-2 2.5 ng/mL)) [nM] | relative IC50 (KHYG-1 (IL-2 2.5 ng/mL)) [nM] | relative IC50 [2] [nM] | relative IC50 (IMC-1 (IL-2 20 ng/mL)) [nM] | relative IC50 (KAI3 (IL-2 2.5 ng/mL)) [nM] | relative IC50 (NKL (IL-2 2.5 ng/mL)) [nM] | relative IC50 (SNK-6 (IL-2 2.5 ng/mL)) [nM] | relative IC50 [3] [nM] | relative IC50 (NK-92 (IL-2 2.5 ng/mL)) [nM] | relative IC50 [4] [nM] |
| --- | --- | --- | --- | --- | --- | --- | --- | --- | --- | --- | --- | --- | --- |
| COc1cc([C@@H]2c3cc4c(cc3[C@@H](O[C@@H]3O[C@@H]5CO[C@@H](C)O[C@H]5[C@H](O)[C@H]3O)[C@H]3COC(=O)[C@H]23)OCO4)cc(OC)c1O [Etoposide] | 1080 | 161 | 1830 | 134 | 435 | 743 | 137 | 73.2 | 47.3 | 615 | 1920 | 646 |  |
| Nc1nc(Nc2ccc3c(c2)CC[C@@H](N2CCCC2)CC3)nn1-c1cc2c(nn1)-c1ccccc1CCC2 [BGB324] | 2250 | 2020 | 766 | 508 | 836 | 437 | 3400 | 1110 | 533 | 1290 | 1070 | 1020 | 1620 |
| Nc1nc(Cl)nc2c1ncn2[C@@H]1O[C@H](CO)[C@@H](O)[C@@H]1F [Clofarabine] | 225 | 67 | 14.4 | 21.7 | 35 | 7.76 | 54.1 | 49.6 | 35.6 | 42.8 | 22.3 | 31.2 | 28 |
| CN[C@@H](C)C(=O)N[C@H]1CN(C(=O)CC(C)C)CC[C@H]2CC[C@@H](C(=O)NC(c3ccccc3)c3ccccc3)N2C1=O [AT-406] |  |  | 1230 |  | 1450 | 1250 |  | 1920 |  |  | 1410 |  | 1690 |
| c1ccc(Cn2c(-c3ccc(OC[C@H](C4CCNCC4)n4c(-c5ccccc5)nc5ccccc54)cc3)nc3ccccc32)cc1 [deltarasin] | 2630 | 2410 | 2880 | 1950 | 2850 | 1640 | 3560 | 1770 | 2110 | 3290 | 2270 | 1830 | 2910 |
| CN[C@@H](C)C(=O)N[C@H](C(=O)N1CCC[C@H]1c1nc(C(=O)c2ccc(F)cc2)cs1)C1CCCCC1 [LCL161] |  |  | 1040 | 1390 | 251 | 2520 |  | 2940 |  |  | 772 | 2900 | 932 |
| CCN(CC)CCOc1ccc(C(=C(Cl)c2ccccc2)c2ccccc2)cc1 [Clomifene] | 3030 | 2280 | 2560 | 1580 | 2490 | 2170 | 2410 | 1840 | 2280 | 1730 | 1810 | 1710 | 1540 |
| CC1(C)CCC(c2ccc(Cl)cc2)=C(CN2CCN(c3ccc(C(=O)NS(=O)(=O)c4ccc(N[C@H](CCN5CCOCC5)CSc5ccccc5)c(S(=O)(=O)C(F)(F)F)c4)cc3)CC2)C1 [Navitoclax] | 26.7 | 73.6 | 85.3 | 109 | 67.7 | 10.4 | 727 | 3.12 | 35.7 | 4.44 | 83 | 208 | 203 |
| CC1(COc2ccc3c(c2)ncn3-c2ccc3cccc(N4CCC(N)CC4)c3n2)COC1 [Crenolanib] | 1600 | 1890 | 1640 | 984 | 1820 | 3660 | 2710 | 2250 | 633 | 429 | 1350 | 998 | 1640 |
| O=C(CCCCCCC(=O)Nc1ccccc1)NO [Vorinostat] | 1470 | 1170 | 376 | 690 | 531 | 394 | 2290 |  | 384 | 713 | 1100 | 467 | 1980 |
| CN(N=O)C(=O)N[C@@H](C=O)[C@@H](O)[C@H](O)[C@H](O)CO [Streptozocin] |  |  | > 10000 | > 10000 |  | > 10000 |  | > 10000 | > 10000 |  |  | > 10000 | > 10000 |
| CCCCCCCCc1ccc(CCC(N)(CO)CO)cc1 [Fingolimod] | 2450 | 2280 | 2450 | 2030 | 2290 | 3330 | 2310 | 1670 | 1400 | 2060 | 1930 | 3260 | 3410 |
| COc1cccc2c1C(=O)c1c(O)c3c(c(O)c1C2=O)C[C@@](O)(/C(CO)=N/NC(=O)CCCCCN1C(=O)C=CC1=O)C[C@@H]3O[C@H]1C[C@H](N)[C@H](O)[C@H](C)O1 [Aldoxorubicin] | 70.8 | 34.3 | 140 | 31.2 | 57.7 | 71.6 | 44.6 | 41.9 | 4.2 | 21.7 | 96.6 | 94.9 | 134 |
| Nc1ccccc1NC(=O)c1ccc(CNc2nccc(-c3cccnc3)n2)cc1 [Mocetinostat] | 1030 | 697 | 723 | 381 | 340 | 443 | 291 | 313 | 166 | 242 | 703 | 246 | 738 |
| COc1nc(N)nc2c1ncn2[C@@H]1O[C@H](CO)[C@@H](O)[C@@H]1O [Nelarabine] |  |  | 406 |  |  | 38.6 | > 10000 | 292 | 1810 |  | 322 |  | 200 |
| Cn1c(CCCC(=O)O)nc2cc(N(CCCl)CCCl)ccc21 [Bendamustine] |  | 2600 | 3960 |  |  | 3780 |  |  | 1420 | 1680 | 2960 |  | 2330 |
| Cc1ccc(C(=O)Nc2ccc(CN3CCN(C)CC3)c(C(F)(F)F)c2)cc1C#Cc1cnc2cccnn12 [Ponatinib] | 121 |  | 240 | 156 | 270 | 55.3 | > 1000 | 213 | 96.1 |  | 335 | 425 | 415 |
| O=C(O)CCCc1ccc(N(CCCl)CCCl)cc1 [Chlorambucil] |  | 1930 | 2830 |  | 3160 | 1660 |  | 1620 | 1410 | 2210 | 2960 | 3200 | 3180 |
| Cc1ccc(-n2nc(C(C)(C)C)cc2NC(=O)Nc2ccc(OCCN3CCOCC3)c3ccccc23)cc1 [Doramapimod] |  | 1300 | 3690 |  | 2140 | 2920 |  | 362 | 370 |  | 3230 | 1910 | 2980 |
| CC/C(=C(\c1ccc(O)cc1)c1ccc(OCCN(C)C)cc1)c1ccccc1 [4-hydroxytamoxifen] | 2330 | 2250 | 3340 | 1690 | 1290 | 3750 | 2130 | 2640 | 2700 | 3890 | 2700 | 2850 |  |
| C[C@@H]1C[C@H]2[C@@H]3CCC4=CC(=O)C=C[C@]4(C)[C@@]3(F)[C@@H](O)C[C@]2(C)[C@@]1(O)C(=O)CO [Dexamethasone] |  |  | 14.1 | 8.07 | 89.3 | 4.64 | > 10000 |  | 7.41 |  | 11.8 |  | 28.8 |
